Test results as given in patent publication US12686854B2, “Method for enhancing secretory function of mesenchymal stem cells and application thereof” (SHANDONG UNIVERSITY, priority 2020, dated 2026).

Tests used:
PI3K-AKT pathway = test: In vitro ovary culture with VCD injury, Western blot of p-AKT and AKT; format: cell-based; conditions: PD4 mouse ovaries, 4 days in vitro culture, VCD 30 μM injury
Procedure: • S1. The concentrated conditioned medium was collected as described in Example 1. • S2. The solution for dissecting ovary containing 10% FBS and 1% penicillin-streptomycin was prepared in L15 medium. • S3. Ovarian culture preparation was performed. The medium of control group, VCD (30 μM) group, VCD+MSC-CM group and VCD+HA/MSC-CM group were prepared, and the embedded culture chamber was placed in 6-well plate containing 1.5 mL medium per well for 2 hours. • S4. The ovaries of postnatal day 4 (PD4) mice were isolated in freshly prepared dissecting solution under stereoscope. The surrounding tissues and ovarian capsule were gently peeled off, which should move quickly and not damage ovarian tissues. • S5. The obtained ovaries were washed three times with dissecting solution and transferred to an operation table as soon as possible. Before the ovaries were placed in the chambers of each group, the ovaries were washed three times with the corresponding medium of each group. After washing, they were placed in the middle of the culture chambers of each group and placed at intervals. The solution was changed on the second day. After 4 days of in vitro culture, the ovarian tissues were collected to extract protein. • S6. The changes of the expression of p-AKT and AKT protein were detected by Western blot.

[1] = test system: germ cells in mouse ovaries; test: In vitro ovary culture with VCD injury, DDX4 immunohistochemical staining of germ cells; format: cell-based; conditions: 8 days in vitro culture

With `C1CC2OC2CC1C1CO1` (stereo not drawn) [VCD, 4-vinylcyclonhexene diepoxide] the “expression level of p-AKT” value (PI3K-AKT pathway) was “decreased significantly”, the ovarian volume ([1]; VCD 30 μM) was “decreased” and the “number of germ cells (DDX4 staining)” value ([1]; VCD 30 μM injury) was “decreased significantly”.
